Reference: PMC12426935, “On-Cell Saturation Transfer Difference NMR Spectroscopy on Ion Channels: Characterizing Negative Allosteric Modulator Binding Interactions of P2X7” (Journal of the American Chemical Society, 2025)
Like-named read-outs stand apart in the source and are kept apart here.

Target: T1, human P2X7 (WT hP2X7) (Homo sapiens, UniProt Q99572)
T1 sequence (Q99572 1-595): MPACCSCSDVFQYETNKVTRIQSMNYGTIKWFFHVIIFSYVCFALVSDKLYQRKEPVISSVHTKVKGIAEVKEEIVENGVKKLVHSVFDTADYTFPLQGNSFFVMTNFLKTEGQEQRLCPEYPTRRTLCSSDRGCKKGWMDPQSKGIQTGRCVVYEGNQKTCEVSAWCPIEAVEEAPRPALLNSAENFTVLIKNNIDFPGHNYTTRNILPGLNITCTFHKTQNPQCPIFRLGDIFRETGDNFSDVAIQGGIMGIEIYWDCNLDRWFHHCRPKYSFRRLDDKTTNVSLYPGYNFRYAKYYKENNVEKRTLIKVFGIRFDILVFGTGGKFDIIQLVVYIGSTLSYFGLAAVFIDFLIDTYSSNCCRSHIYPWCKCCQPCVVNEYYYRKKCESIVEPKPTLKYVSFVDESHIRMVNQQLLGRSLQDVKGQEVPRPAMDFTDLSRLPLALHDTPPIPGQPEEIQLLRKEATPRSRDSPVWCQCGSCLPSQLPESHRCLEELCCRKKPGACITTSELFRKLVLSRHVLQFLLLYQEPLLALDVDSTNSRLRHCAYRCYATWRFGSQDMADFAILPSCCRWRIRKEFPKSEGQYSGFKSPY
Experiment: fura-2 intracellular calcium assay on HEK-293 stable cell line expressing human P2X7
Assay type: cell-based
Method: Transfection was performed using lipofectamine 2000 (Fisher Scientific), and cells were subjected to Geneticin (800 μg/mL) selection for 2–3 weeks. This was followed by single cell cloning by limiting dilution in 96-well plates. Individual clones were selected for further study based on ATP-induced TO-PRO-3 uptake on a BD Cytoflex flow cytometer. Cell lines were maintained in DMEM:F12 media supplemented with 10% fetal bovine serum (PanBiotech), penicillin and streptomycin (Fisher Scientific) and kept in a humidified incubator with 5% CO2. Stable P2X7-expressing cells were kept under Geneticin selection at a concentration of 400 μg/mL. Passaging was performed twice weekly using 0.25% Trypsin-EDTA (Fisher Scientific).
P2X7 responses were measured by monitoring intracellular calcium responses using fura-2AM loaded cells. Cells were plated at 2–2.5 × 10^4 cells/well the day before experiments in 96-well plates (NUNC) coated with 50 μg/mL poly-D-lysine (Merck Millipore). […] Responses were measured using a Flexstation 3 plate reader (Molecular Devices) with dual excitation wavelengths of 340 and 380 nm and single emission wavelength of 510 nm. The sample interval was 3.5 s, and each well was recorded for 180 s. Fura-2 ratios were calculated in Softmax Pro v5.4; zero baseline was applied, and responses were measured as normalized area under the curve (AUC). Dose inhibition curves were plotted using GraphPad Prism v6 nonlinear regression (three parameter fit) and log IC50 values reported.

## O=C(NCC1(N2CCN(c3ccccc3)CC2)CCOCC1)c1cccnc1Sc1ccccc1 [JNJ-47965567]
  IC50: 26 nM
Human P2X7, species comparison (Table 1), log IC50 ± standard error, n = 3, read-out: Log IC50 (converted)
  IC50: 9.12 nM
Human P2X7, species comparison (Table 1), mean in brackets, n = 3, read-out: mean IC50
  IC50: 9 nM
WT hP2X7, agonist ATP (Table 2), log IC50 ± standard error, n = 3, read-out: Log IC50 (converted)
  IC50: 11.9 nM
WT hP2X7, agonist ATP (Table 2), mean in brackets, n = 3, read-out: mean IC50
  IC50: 11.7 nM
